Like-named read-outs stand apart in the source and are kept apart here.
Test system: Sham Transfected HEK293T/G16gust44 cells
Procedure: HEK293T/G16gust44 cells were used; they were formed as described in WO 2004/055048. The host cell line HEK-293T is commercially available from the American Tissue Culture Collection (ATCC), ATCC®#CRL-11268.
On day 0, the HEK293T/G16gust44 cells were plated in 96-well black wall, clear-bottom plates at a density of 15,000 cells per well and grown overnight in growth media (Dulbecco's modified Eagle's medium (DMEM) with 10% (v/v) heat-inactivated fetal bovine serum, 2 mM L-glutamine, 100 units/ml penicillin, 100 μg/ml streptomycin).
On day 1, the media was changed to an antibiotic-free and serum-free DMEM, and the cells were transfected with Lipofectamine 2000 (Invitorgen) according to the manufacturer's recommendations.
Per well of a 96-well plate, 150 ng of vector DNA (TAS2R41 expression vectors from example 1) was diluted in 12.5 μl of DMEM. In a second tube, 0.3 μl of Lipofectamine 2000 was diluted in 12.5 μl of DMEM and incubated for 5 min at room temperature. After the 5 min, both solutions were mixed and incubated for 20 min at RT.
The growth medium in the plate was exchanged with 50 μl of DMEM and 25 μl of the lipofectamine/DNA mixture (formed in the step above) and the cells were incubated for a further 3-4 hours at 37° in a humidified atmosphere. This mixture was then replaced with an antibiotic-free, serum-containing DMEM.
The above procedure was also carried out for HEK293T/G16gust44 cells formed as described in WO 2004/055048 with the exception that no DNA was added during the process (these cells are termed Sham transfected cells);
Each sample (receptors as well as controls) contained a final concentration of 0.02% Dimethyl sulphoxide (DMSO) to allow for comparability of all examples below.
On day 0, the HEK293T cells formed as described in example 2, were seeded in antibiotic-free growth medium (standard DMEM with 10% (v/v) heat-inactivated fetal bovine serum, 2 mM L-glutamine […]) into black wall/clear bottom 96-well plates, coated with poly(ethylenimine) (0.005% v/v) at a concentration of 15,000 cells per well and incubated for 48 hours in humidified atmosphere (37° C., 5% CO2).
Prior to performing the assay, the growth medium was discarded and the cells were left in a humidified atmosphere (37° C., 5% CO2) for 1 hour with 50 μl of loading buffer consisting of 1.5 μM Fluo-4 AM and […] probenicid (Sigma-Aldrich, St. Louis, Mo., US) in DMEM.
Following this the 96-well plate was washed 5 times with 100 μl of assay buffer (130 mM NaCl, 5 mM KCl, 10 mM 4-(2-hydroxyethyl)-1-piperazineethanesulfonic acid (HEPES), 2 mM CaCl2, and 5 mM dextrose, pH 7.4) per well, using an automated plate washer (BioTek).
The plate was then further incubated for 30 minutes at room temperature in the dark to allow for complete de-esterification of the Fluo-4. Afterwards the plate was washed 5 times with 100 μl of assay buffer per well, and reconstituted with 100 μl of assay buffer per well.
Cyclamate solutions ranging in concentration from 250 mM to 800 mM were prepared in assay buffer.
To test receptor activation 20 μl of one of these cyclamate test solutions was added to the assay buffer of at least one well of the 96 well plate. This step was repeated until all cyclamate solutions of differing concentrations had been added to at least one well. Care was taken to ensure that only one cyclamate solution was added per well. The resulting cyclamate concentrations in the well plates ranged in concentration from 25 mM to 80 mM (This is due to the dilution of the cyclamate solution in the assay buffer present in the well).
For assay reading, the plate was placed in a Fluorometric Imaging Plate Reader (FLIPR) (FLIPR-TETRA™, Molecular Devices, Sunnyvale, Calif., US).

O=S(=O)(O)NC1CCCCC1 [Cyclamate, cyclamate]
Cyclamate Average ΔF/F0 (25 mM cyclamate in well): 0.1588 | Cyclamate Average ΔF/F0 (30 mM cyclamate in well): 0.1665 | Cyclamate Average ΔF/F0 (35 mM cyclamate in well): 0.1676 | Cyclamate Average ΔF/F0 (40 mM cyclamate in well): 0.1718 | Cyclamate Average ΔF/F0 (45 mM cyclamate in well): 0.1765 | Cyclamate Average ΔF/F0 (50 mM cyclamate in well): 0.1676 | Cyclamate Average ΔF/F0 (55 mM cyclamate in well): 0.1682 | Cyclamate Average ΔF/F0 (60 mM cyclamate in well): 0.1453 | Cyclamate Average ΔF/F0 (65 mM cyclamate in well): 0.1382 | Cyclamate Average ΔF/F0 (70 mM cyclamate in well): 0.1529 | Cyclamate Average ΔF/F0 (75 mM cyclamate in well): 0.1329 | Cyclamate Average ΔF/F0 (80 mM cyclamate in well): 0.1465
